{
  "source": "patent US20100152114A1",
  "about": "“Antioxidant activity of GH-RH Antagonists” (priority 2008, published 2010)",
  "type_in_all_cases": "cell-based",
  "key": {"[1]": {"tested_on": "LNCaP prostate cancer cell line", "experiment": "Cell proliferation rate assay in LNCaP cells", "settings": "vs LNCaP cells cultured without peptide, 72 hours incubation (FIG. 1)", "excerpt": "(A) is a graphic presentation of the changes in the proliferation rate of the LNCaP prostate cancer cell line after exposure to GHRH antagonist JMR-132 and GHRH (1-29)NH2. Percentage increase or decrease are expressed vs LNCaP cells cultured in the absence of JMR-132 or GHRH (1-29)NH2*(P<0.05), **(P<0.005).\nThe rate of the cell proliferation […] microscope using the trypan blue assay or a Z series Coulter Counter (Beckman Coulter, Fullerton, Calif., USA). The data are expressed as the mean±SEM. Statistical evaluation of the results was performed by the Student's t test (two-tailed). P values shown are against the control group.\nLNCaP prostate cancer cells were exposed to two concentrations of GHRH(1-29)NH2 and JMR-132. […] However, GHRH (1-29)NH2 at 0.1 μM concentration stimulated the proliferation rate of LNCaP cells by 13%. GHRH antagonist JMR-132 at the doses of 0.1 μM and 1 μM decreased the proliferation of LNCaP prostate cancer cell line by 32% and 37% respectively. In addition, the expression levels of the PCNA (M.W: 36 KDa) were evaluated by Western Blot. The PCNA protein expression was increased in the cells exposed to 0.1 μM and 1 μM of GHRH (1-29)NH2 (R.I: 0.77 and 0.925 respectively) and decreased in the cells that incubated with 0.1 μM of GHRH antagonist JMR-132. (R.I: 0.495) as compared to control (R.I: 0.656)."}, "[2]": {"tested_on": "cleaved caspase 3", "experiment": "Western Blot of cleaved caspase 3 in LNCaP cells", "settings": "1 μM, 72 hours, control R.I: 0.320", "procedure": "(§1) (A): is a Western Blot analysis of expression of the phosphorylated NFκB p50, caspase 3 protein and its cleaved form in LNCaP prostate cancer cell line after exposure to GHRH antagonist JMR-132 and GHRH (1-29)NH2. n=2\n(§2) Prostate cancer cells LNCaP and breast cancer cells MCF-7 were obtained from American Type Culture Collection (Manassas, Va.) and were cultured as described previously. The antibodies that detect P53, PCNA, GPX1, SOD1, NQ01, Thioredoxin 1, COX2 and COX IV were purchased from Cell Signalling (Danvers, Mass.). The antibodies that detect β actin, NFκB50, pNFκB50, caspase 3 and its cleaved form were purchased from Santa Cruz Biotechnology (Santa Cruz, Calif.). The antibodies against GHRH-R (batch number: SV95) and SV1 (batch number: JH 2317/5) were raised in our laboratory. The signals for the immunoreactive proteins were visualized in a Chemi Doc XRS system (Biorad, Hercules, Calif.). The western Blot assay as well the quantification analysis of the blots was performed as described previously.\n(§3) LNCaP cells cultured in vitro were exposed to 1 μM GHRH antagonist JMR-132 and 1 μM GHRH(1-29)NH2. The expression levels of NFκB p50, the phosphorylated NFκB p50, caspase 3 (M.W: 35 KDa) and the cleaved caspase 3 were detected by Western Blot. […]"}, "[3]": {"tested_on": "malondialdehyde (MDA)", "experiment": "Lipid peroxidation: malondialdehyde immunoblot in LNCaP cells", "settings": "1 μM, 72 hour, control R.I: 4.433", "procedure": "(§4) The detection of the carbonyl groups, the nitrotyrosine and the lipid peroxidation was performed with the Oxiselect Protein carbonyl Immunoblot, the Oxiselect Nitrotyrosine Immunoblot Kit and the Oxiselect Malondialdehyde Immunoblot Kit respectively (Cell Biolabs, San Diego, Calif.) according the manufacturer s instructions. The detection of the lipid peroxidation using a primary rabbit anti-MDA antibody (Cell Biolabs, San Diego, Calif.) according the manufacturer' instructions. The β-actin signal was used as control.\n(§5) LNCaP prostate cancer cell line cultured in vitro were exposed to 1 μM JMR-132 or 1 μM GHRH(1-29)NH2. The levels of the oxidation of the proteins were determined by the detection of the N-nitrotyrosine and the protein carbonyl groups. Both were elevated in the cells exposed to GHRH (1-29)NH2 (R.I: 3.282, 7.415) and decreased in the cells incubated with GHRH antagonist JMR-132 (R.I: 1.251, 4.275), as compared to control (R.I: 2.903, 5.846). The levels of the lipid peroxidation, determined by the detection of the malondialdehyde (MDA), were increased in cells exposed to GHRH (1-29)NH2 (R.I:4.89) and decreased in cells incubated with GHRH antagonist JMR-132 (R.I: 2.973) as compared to control (R.I: 4.433). […]"}, "[4]": {"tested_on": "phosphorylated NFκB p50", "experiment": "Western Blot of phosphorylated NFκB p50 in LNCaP cells", "settings": "1 μM, 72 hours, control R.I: 0.521", "procedure": "as §1, §2, §3"}, "[5]": {"tested_on": "NFκB p50", "experiment": "Western Blot of NFκB p50 in LNCaP cells", "settings": "1 μM, 72 hours", "procedure": "(B): is a Western Blot analysis of expression of the NFκB p50. n=2\nas §2, §3"}, "[6]": {"tested_on": "wild-type p53 tumor suppressor protein", "experiment": "Western Blot of wild-type p53 expression in LNCaP cells", "settings": "72 hour exposure, control R.I: 0.436", "procedure": "as §2\nLNCaP prostate cancer cell line cultured in vitro was exposed to two concentrations of JMR-132 and GHRH(1-29)NH2 and the expression level of the p53 tumor suppressor protein (M.W: 53 KDa) was measured by Western Blot. The p53 protein expression was higher in the cells exposed to 0.1 μM and 1 μM GHRH antagonist JMR-132 (R.I: 0.583 and 0.658 respectively) and lower in the cells incubated with 0.1 μM and 1 μM GHRH (1-29)NH2 (R.I: 0.376 and 0.264 respectively) as compared to control (R.I: 0.436)"}, "[7]": {"tested_on": "protein carbonyl groups", "experiment": "Protein oxidation: protein carbonyl immunoblot in LNCaP cells", "settings": "1 μM, 72 hour, control R.I: 5.846", "procedure": "as §4, §5"}, "[8]": {"tested_on": "N-nitrotyrosine", "experiment": "Protein oxidation: nitrotyrosine immunoblot in LNCaP cells", "settings": "1 μM, 72 hour, control R.I: 2.903", "procedure": "as §4, §5"}},
  "note": "Ends that are not written are not given here.",
  "data": [
    {"substance": "GHRH(1-29)NH2 (YADAIFTNSYRKVLGQLSARKLLQDIMSR-NH2; UniProt P01286 32-60, looked up, fragment) [Growth Hormone-Releasing Hormone (1-29) amide, agonist peptide used for comparison with the antagonist]", "values": [
      {"measurement": "increase (stimulation) of the proliferation rate of LNCaP cells", "setting": "[1]; 0.1 μM", "result": 13, "unit": "%"},
      {"measurement": "increase of the proliferation rate of LNCaP cells", "setting": "[1]; 1 μM", "result": 7, "unit": "%"},
      {"measurement": "expression of cleaved caspase 3 (R.I)", "setting": "[2]", "result": 0.182},
      {"measurement": "lipid peroxidation, malondialdehyde (MDA) (R.I)", "setting": "[3]", "result": 4.89},
      {"measurement": "expression of the phosphorylated NFκB (R.I)", "setting": "[4]", "result": 0.623},
      {"measurement": "expression of the NFκB (R.I), not influenced", "setting": "[5]", "result": 0.766},
      {"measurement": "p53 protein expression (R.I)", "setting": "[6]; 0.1 μM", "result": 0.376},
      {"measurement": "p53 protein expression (R.I)", "setting": "[6]; 1 μM", "result": 0.264},
      {"measurement": "protein carbonyl groups level, protein oxidation (R.I)", "setting": "[7]", "result": 7.415},
      {"measurement": "N-nitrotyrosine level, protein oxidation (R.I)", "setting": "[8]", "result": 3.282}
    ]},
    {"substance": "[PhAc^0-Tyr^1, D-Arg^2, Cpa^6, Ala^8, Har^9, Tyr(Me)^10, His^11, Abu^15, His^20, Nle^27, D-Arg^28, Har^29]hGH-RH(1-29)NH2 [JMR-132]", "values": [
      {"measurement": "decrease of the proliferation of LNCaP prostate cancer cell line", "setting": "[1]; 0.1 μM", "result": 32, "unit": "%"},
      {"measurement": "decrease of the proliferation of LNCaP prostate cancer cell line", "setting": "[1]; 1 μM", "result": 37, "unit": "%"},
      {"measurement": "expression of cleaved caspase 3 (R.I)", "setting": "[2]", "result": 0.391},
      {"measurement": "lipid peroxidation, malondialdehyde (MDA) (R.I)", "setting": "[3]", "result": 2.973},
      {"measurement": "expression of the phosphorylated NFκB (R.I)", "setting": "[4]", "result": 0.451},
      {"measurement": "expression of the NFκB (R.I), not influenced", "setting": "[5]", "result": 0.786},
      {"measurement": "p53 protein expression (R.I)", "setting": "[6]; 0.1 μM", "result": 0.583},
      {"measurement": "p53 protein expression (R.I)", "setting": "[6]; 1 μM", "result": 0.658},
      {"measurement": "protein carbonyl groups level, protein oxidation (R.I)", "setting": "[7]", "result": 4.275},
      {"measurement": "N-nitrotyrosine level, protein oxidation (R.I)", "setting": "[8]", "result": 1.251}
    ]}
  ]
}
